Assay results from patent US7566453B2, “Methods for treating melanomas” (Chugai Seiyaku Kabushiki Kaisha, priority 1998, dated 2009).
Where “and” joins values, the source holds several entries; their conditions need not be identical. Equal entries are not always repeated.

Assays:
KPMM2 cells = test system: KPMM2 cells
Description: The effects of anti-human IL-6 receptor antibody on sensitivity of KPMM2 cells to chemotherapeutic agents used for treatment of myeloma such as adriamycin (ADR, manufactured by Kyowa Hakko), vincristine (VCR, manufactured by Sigma Chemical Co.), and melphalan (L-PAM, manufactured by Sigma Chemical Co.) were evaluated.
KPMM2 is a multiple myeloma cell line derived from the ascites of a human patient with myeloma (see Japanese Unexamined Patent Publication (Kokai) No. 7-236475). […] The growth activity of the cell was evaluated by incorporation of ^3H-labeled thymidine (manufactured by Amersham) into the cell.
The KPMM2 cells that had been maintained were washed thoroughly with a fresh medium (RPMI1640 medium supplemented with 20% FBS), and then were adjusted to 4×10^5/ml, which was dispensed in 50 μl aliquots in a 96-well flat-bottomed microtiter plate (manufactured by Falcon). Furthermore, a medium containing a recombinant human IL-6 (Asagoe, Y. et al., Bio/Technology (1988) 6, 806-809), anti-human IL-6 receptor antibody hPM-1 (see the above reference example 1 or International Patent Application WO 92-15759), and the above chemotherapeutic agents or a fresh medium as control were added to make 200 μl in each well.
The plate was incubated at 37° C. for 4 days under the humidified condition in the presence of 5% CO2. At four hours before the end of incubation, 10 μl of ^3H-labeled thymidine solution (100 μCi/ml) was added to each well, and then incubated for more 4 hours. At the end of incubation, the cells were collected onto the glass filter (manufactured by Printed Filtermat A, WALLAC) using a harvester (Micro 96 Harvester, manufactured by SKATRON Instruments). The radioactivity incorporated into the cells was measured by a microbeta (1450 MicroBeta, manufactured by WALLAC).
The activity of growth inhibition on KPMM2 was expressed using the effect by a chemotherapeutic agent alone as the control. Using the incorporation of ^3H-labeled thymidine into the cell for each experimental group in which a each concentration of a chemotherapeutic agent was added as 100, the amount of ^3H-labeled thymidine incorporated into the cell in an experimental group in which anti-human IL-6 receptor antibody was simultaneously added was compared as an index.

[1] = test system: KPMM2, a human myeloma cell line; assay: Human myeloma cell-implanted SCID mouse system (Example 2): survival, disease-free ratio, serum M protein; format: in vivo; conditions: for Life-elongation ratio* (%): 100 × (drug administration group/drug non-administration group); for Survival period: mean ± standard error; for None disease ratio: survival ratio without disease on day 120
From the text: For evaluation of antitumor activity, a xenograft model was used. Thus, KPMM2, a human myeloma cell line derived from ascites of a patient with multiple myeloma was implanted to a male SCID mouse (FOX CHASE C. B17/Icr-Scid Jcl, purchased from Nippon Klea) via the tail vein. At this time, the tumor cells grow in the bone marrow and come to produce myeloma protein (M protein) in the peripheral blood. Furthermore, this model system is very close to an actual clinical condition in that it develops major symptoms of multiple myeloma in humans such as bone disorders, elevated blood calcium, and the like.
Single cell suspension of myeloma cells for implantation was prepared by passing through a mesh the well minced KPMM2 cells that have been maintained in vivo. Cell density was adjusted to 3×10^7/ml, which was implanted at 0.2 ml per mouse via the tail vein ([…]). The day when the cells were implanted was set at day 0.
This was given to mice at 0.2 ml per animal via the tail vein on day 8 (1 mg per mouse).
Melphalan (L-PAM, manufactured by Sigma Chemical Co.) that was suspended at 0.3 or 0.1 mg/ml in 0.2% CMC (carboxymethylcellulose) solution in water was used. This was given orally at 0.1 ml per 10 g body weight of mouse (3 or 1 mg/kg weight) for 5 consecutive days starting on day 1.
The experiment was carried out on the following six groups: (1) the melphalan and antibody non-administration group; (2) the 1 mg/kg melphalan single-drug administration group; (3) the 3 mg/kg melphalan single-drug administration group; (4) antibody single-drug administration group; (5) the 1 mg/kg melphalan and antibody combined administration group; and (6) the 3 mg/kg melphalan and antibody combined administration group. Group 1 included 9 mice, whereas each of the other groups included 7 mice. Furthermore, tumor was not implanted on mice of the same lineage and purchased on the same day, which were used as negative control for M protein detection.
Indices of the drug efficacy included the survival period, the survival ratio without disease on day 120, and the amount of M protein on day 30. For analysis using a survival curve, a generalized Wilcoxon's test (SPSS for windows ver. 6, SPSS inc.) was used. A significance level of 5% or lower was considered to be significant.
Serum M protein was detected as human IgG using the ELISA method. First, mouse serum was dispensed into a 96-well micro plate that had previously been coated with anti-human IgG antiserum and was allowed to stand. Then alkaline phosphatase-conjugated […] was bound thereto, and SIGMA104 phosphatase substrate was added for color development, absorbance of which was read using a microplate reader. M protein content in the serum was calculated using the standard curve obtained from normal human IgG.

[2] = hPM-1 1 mg per mouse via the tail vein on day 8, CMC control
[3] = melphalan 1 mg/kg orally, 5 days from day 1, no antibody
[4] = melphalan 3 mg/kg orally, 5 days from day 1, no antibody

Compound | growth index (3H-thymidine incorporation, chemotherapeutic agent alone = 100) (KPMM2 cells) | life elongation effect as compared to the non-administration group ([1]; antibody single-drug administration, 1 mg per mouse on day 8 (FIG. 7)) | Life-elongation ratio* (%) [1, 2] [%] | Survival period [1, 2] | None disease ratio ([1]; hPM-1 1 mg per mouse on day 8, CMC control) | relationship of growth index with the concentration of chemotherapeutic agent (KPMM2 cells; fixed concentration of anti-human IL-6 receptor antibody, 0.1 or 1 ng/ml IL-6 (FIG. 1 to 6)) | life elongation effect as compared to the non-administration group ([1]; 1 mg/ml melphalan administration group (FIG. 7)) | life elongation effect as compared to the non-administration group ([1]; 3 mg/kg melphalan single-drug administration (FIG. 9)) | Survival period ([1]; melphalan 1 mg/kg orally, 5 consecutive days from day 1, no antibody) | Life-elongation ratio* (%) [1, 3] [%] | Survival period ([1]; melphalan 3 mg/kg orally, 5 consecutive days from day 1, no antibody) | Life-elongation ratio* (%) [1, 4] [%] | None disease ratio [1, 3] | None disease ratio [1, 4]
hPM-1: reshaped human PM-1 antibody: CDRs of mouse anti-IL-6 receptor antibody PM-1 grafted to human antibody, produced in CHO cells | 33.9 and 28.4 | no life elongation effect | 118 | 55.1 ± 5.2 | 0/7 | – | – | – | – | – | – | – | – | –
NC(Cc1ccc(N(CCCl)CCCl)cc1)C(=O)O (centres unmarked) [melphalan] | – | – | – | – | – | decreased with the increase in melphalan concentration | no life elongation effect | significant life elongation effect | 47.3 ± 3.1 | 101 | 84.1 ± 9.1 | 175 | 0/7 | 2/7
